Data as given in US8470888B2, “Botryllamides and method of inhibiting PGP in a mammal afflicted with cancer” (The United States of America, as represented by the …, priority 2008, dated 2013).

molecular target: ABCG2 (Homo sapiens (Human), UniProt Q9UNQ0); experiment: Pheophorbide a accumulation assay for ABCG2 inhibitors in NCI-H460/MX20 cells; format: cell-based; conditions: 1 μM pheophorbide a, 18 h
Protocol: Accumulation of pheophorbide a, a fluorescent ABCG2 substrate (Jonker et al., Proc. Natl. Acad. Sci. USA, 99: 15649-54 (2002) and Robey et al., Cancer Res., 64: 1242-6 (2004)), formed the basis of the assay for inhibitors of ABCG2 activity (Henrich et al., J. Biomol. Screen, 11: 176-83 (2006)). Briefly, NCI-H460/MX20 cells are transferred to black wall, clear bottom 384-well polylysine-coated assay plates (Corning, Corning, N.Y.) and allowed to attach for several hours. Pheophorbide a (1 μM final concentration) is added immediately followed by compounds or vehicle (DMSO/PBS) control and incubated an additional 18 h. After removal of medium and washing with PBS containing Ca^2+ and Mg^2+, fluorescence intensity is read on a Tecan Safire fluorescence plate reader in bottom read mode, 395 nm excitation, and 670 nm emission. Each plate has control wells containing 10 μM (final concentration) FTC. Data are normalized to FTC and reported as % of FTC fluorescence.

Chain of ABCG2 (Q9UNQ0 whole entry): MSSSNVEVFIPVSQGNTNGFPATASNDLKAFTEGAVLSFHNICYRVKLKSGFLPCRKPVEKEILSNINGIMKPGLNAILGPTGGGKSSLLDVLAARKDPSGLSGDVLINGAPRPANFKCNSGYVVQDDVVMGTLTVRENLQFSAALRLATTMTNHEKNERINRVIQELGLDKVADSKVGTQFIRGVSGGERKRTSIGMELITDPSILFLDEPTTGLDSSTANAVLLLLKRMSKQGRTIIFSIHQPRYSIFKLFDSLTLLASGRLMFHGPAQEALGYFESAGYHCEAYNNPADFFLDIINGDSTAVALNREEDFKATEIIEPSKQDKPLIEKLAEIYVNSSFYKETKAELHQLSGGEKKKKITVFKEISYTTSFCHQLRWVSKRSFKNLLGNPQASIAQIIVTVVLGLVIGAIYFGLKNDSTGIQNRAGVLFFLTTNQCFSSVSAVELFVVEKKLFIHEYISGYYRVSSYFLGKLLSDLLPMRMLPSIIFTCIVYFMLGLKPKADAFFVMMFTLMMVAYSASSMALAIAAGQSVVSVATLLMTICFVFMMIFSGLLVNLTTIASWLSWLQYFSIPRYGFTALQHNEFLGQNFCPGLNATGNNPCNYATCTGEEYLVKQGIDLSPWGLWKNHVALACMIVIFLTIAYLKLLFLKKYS

| Compound | IC50 [µM] |
| --- | --- |
| CO/C(=C\c1ccc(O)cc1)C(=O)N/C=C/c1ccc(OC)c(Br)c1 [Botryllamide D, botryllamide D] | 16.4 |
| CO/C(=C\c1ccc(O)cc1)C(=O)N/C=C/c1ccc(OC)cc1 [Botryllamide E, botryllamide E] | 23.3 |
| botryllamide J | 26.9 |
| botryllamide B | 11.2 |
| CO/C(=C\c1ccc(O)cc1)C(=O)N/C=C/c1cc(Br)c(O)c(Br)c1 [Botryllamide G, botryllamide G] | 6.9 |
| CO/C(=C\c1ccc(O)cc1)C(=O)N/C=C/c1cc(Br)c(OC)c(Br)c1 [Botryllamide A, botryllamide A] | 33 |
| CO/C(=C\c1ccc(O)cc1)C(=O)N/C=C/c1ccc(OC)cc1 [Botryllamide I, botryllamide I] | 41.4 |
| CO/C(=C\c1ccc(O)cc1)C(=O)N/C=C/c1ccc(O)cc1 [Botryllamide F, botryllamide F] | 16.7 |

same assay, conditions: 40 μM compound, normalized to 10 μM FTC

| Compound | Pheophorbide a max activity, % of FTC response |
| --- | --- |
| botryllamide B | 84.3 (40 μM) % |
| CO/C(=C\c1ccc(O)cc1)C(=O)N/C=C/c1cc(Br)c(O)c(Br)c1 [Botryllamide G, botryllamide G] | 123.7 (40 μM) % |

same assay, conditions: 80 μM compound, normalized to 10 μM FTC

| Compound | Pheophorbide a max activity, % of FTC response [%] |
| --- | --- |
| CO/C(=C\c1ccc(O)cc1)C(=O)N/C=C/c1ccc(OC)c(Br)c1 [Botryllamide D, botryllamide D] | 63.5 |
| CO/C(=C\c1ccc(O)cc1)C(=O)N/C=C/c1ccc(OC)cc1 [Botryllamide E, botryllamide E] | 68.8 |
| botryllamide J | 70.5 |
| CO/C(=C\c1ccc(O)cc1)C(=O)N/C=C/c1cc(Br)c(OC)c(Br)c1 [Botryllamide A, botryllamide A] | 89.7 |
| CO/C(=C\c1ccc(O)cc1)C(=O)N/C=C/c1ccc(OC)cc1 [Botryllamide I, botryllamide I] | 71.3 |
| CO/C(=C\c1ccc(O)cc1)C(=O)N/C=C/c1ccc(O)cc1 [Botryllamide F, botryllamide F] | 81.0 |

molecular target: Pgp (Homo sapiens (Human), UniProt P08183); experiment: Flow assay, rhodamine 123 efflux in transfected HEK293 cells expressing Pgp; format: cell-based; conditions: 10 μM compound; 0.5 μg/ml rhodamine 123
Sequence (P08183 whole entry): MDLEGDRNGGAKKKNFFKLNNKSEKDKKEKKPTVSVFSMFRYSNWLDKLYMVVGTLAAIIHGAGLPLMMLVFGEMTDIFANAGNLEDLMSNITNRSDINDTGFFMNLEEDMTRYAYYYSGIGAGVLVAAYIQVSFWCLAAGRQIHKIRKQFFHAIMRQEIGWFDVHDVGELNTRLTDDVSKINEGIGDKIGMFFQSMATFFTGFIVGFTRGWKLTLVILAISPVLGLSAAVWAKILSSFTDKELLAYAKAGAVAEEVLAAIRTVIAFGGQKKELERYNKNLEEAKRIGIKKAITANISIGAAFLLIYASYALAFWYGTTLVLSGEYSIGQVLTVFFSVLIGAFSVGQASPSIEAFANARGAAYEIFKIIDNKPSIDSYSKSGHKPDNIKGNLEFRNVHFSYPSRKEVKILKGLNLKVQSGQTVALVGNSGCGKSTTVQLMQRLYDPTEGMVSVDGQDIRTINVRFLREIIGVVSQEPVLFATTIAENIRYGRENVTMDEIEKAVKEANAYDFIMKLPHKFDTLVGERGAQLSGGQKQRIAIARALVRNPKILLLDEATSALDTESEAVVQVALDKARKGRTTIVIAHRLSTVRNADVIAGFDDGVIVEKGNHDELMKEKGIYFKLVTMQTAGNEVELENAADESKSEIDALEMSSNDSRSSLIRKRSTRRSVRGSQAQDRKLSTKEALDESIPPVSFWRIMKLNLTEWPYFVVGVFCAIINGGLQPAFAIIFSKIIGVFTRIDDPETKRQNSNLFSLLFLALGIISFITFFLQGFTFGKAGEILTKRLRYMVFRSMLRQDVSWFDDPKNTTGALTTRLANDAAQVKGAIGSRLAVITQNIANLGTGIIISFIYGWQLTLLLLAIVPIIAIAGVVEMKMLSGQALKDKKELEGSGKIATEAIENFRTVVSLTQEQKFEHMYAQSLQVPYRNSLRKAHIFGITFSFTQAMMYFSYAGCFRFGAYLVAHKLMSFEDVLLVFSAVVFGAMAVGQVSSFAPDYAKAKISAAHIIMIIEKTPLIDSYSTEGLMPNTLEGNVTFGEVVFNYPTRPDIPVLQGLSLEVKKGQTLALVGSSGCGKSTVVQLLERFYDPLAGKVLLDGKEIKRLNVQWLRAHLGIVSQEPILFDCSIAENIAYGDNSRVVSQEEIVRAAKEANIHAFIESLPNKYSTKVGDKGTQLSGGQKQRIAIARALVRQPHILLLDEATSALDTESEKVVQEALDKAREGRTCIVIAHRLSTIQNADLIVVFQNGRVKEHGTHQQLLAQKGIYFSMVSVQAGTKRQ

| Compound | Flow-Pgp, Fold Increase (Pgp inhibition, rhodamine efflux: treated/control ratio) [fold] |
| --- | --- |
| CO/C(=C\c1ccc(O)cc1)C(=O)N/C=C/c1ccc(OC)c(Br)c1 [Botryllamide D, botryllamide D] | 1.49 |
| CO/C(=C\c1ccc(O)cc1)C(=O)N/C=C/c1ccc(OC)cc1 [Botryllamide E, botryllamide E] | 0.76 |
| botryllamide J | 0.58 |
| botryllamide B | 1.95 |
| CO/C(=C\c1ccc(O)cc1)C(=O)N/C=C/c1cc(Br)c(O)c(Br)c1 [Botryllamide G, botryllamide G] | 0.68 |
| CO/C(=C\c1ccc(O)cc1)C(=O)N/C=C/c1cc(Br)c(OC)c(Br)c1 [Botryllamide A, botryllamide A] | 17.63 |
| CO/C(=C\c1ccc(O)cc1)C(=O)N/C=C/c1ccc(OC)cc1 [Botryllamide I, botryllamide I] | 0.8 |
| CO/C(=C\c1ccc(O)cc1)C(=O)N/C=C/c1ccc(O)cc1 [Botryllamide F, botryllamide F] | 0.59 |

molecular target: MRP1 (Homo sapiens (Human), UniProt P33527); experiment: Flow assay, calcein efflux in transfected HEK293 cells expressing MRP1; format: cell-based; conditions: 10 μM compound; 200 nM calcein AM
Sequence (P33527 whole entry): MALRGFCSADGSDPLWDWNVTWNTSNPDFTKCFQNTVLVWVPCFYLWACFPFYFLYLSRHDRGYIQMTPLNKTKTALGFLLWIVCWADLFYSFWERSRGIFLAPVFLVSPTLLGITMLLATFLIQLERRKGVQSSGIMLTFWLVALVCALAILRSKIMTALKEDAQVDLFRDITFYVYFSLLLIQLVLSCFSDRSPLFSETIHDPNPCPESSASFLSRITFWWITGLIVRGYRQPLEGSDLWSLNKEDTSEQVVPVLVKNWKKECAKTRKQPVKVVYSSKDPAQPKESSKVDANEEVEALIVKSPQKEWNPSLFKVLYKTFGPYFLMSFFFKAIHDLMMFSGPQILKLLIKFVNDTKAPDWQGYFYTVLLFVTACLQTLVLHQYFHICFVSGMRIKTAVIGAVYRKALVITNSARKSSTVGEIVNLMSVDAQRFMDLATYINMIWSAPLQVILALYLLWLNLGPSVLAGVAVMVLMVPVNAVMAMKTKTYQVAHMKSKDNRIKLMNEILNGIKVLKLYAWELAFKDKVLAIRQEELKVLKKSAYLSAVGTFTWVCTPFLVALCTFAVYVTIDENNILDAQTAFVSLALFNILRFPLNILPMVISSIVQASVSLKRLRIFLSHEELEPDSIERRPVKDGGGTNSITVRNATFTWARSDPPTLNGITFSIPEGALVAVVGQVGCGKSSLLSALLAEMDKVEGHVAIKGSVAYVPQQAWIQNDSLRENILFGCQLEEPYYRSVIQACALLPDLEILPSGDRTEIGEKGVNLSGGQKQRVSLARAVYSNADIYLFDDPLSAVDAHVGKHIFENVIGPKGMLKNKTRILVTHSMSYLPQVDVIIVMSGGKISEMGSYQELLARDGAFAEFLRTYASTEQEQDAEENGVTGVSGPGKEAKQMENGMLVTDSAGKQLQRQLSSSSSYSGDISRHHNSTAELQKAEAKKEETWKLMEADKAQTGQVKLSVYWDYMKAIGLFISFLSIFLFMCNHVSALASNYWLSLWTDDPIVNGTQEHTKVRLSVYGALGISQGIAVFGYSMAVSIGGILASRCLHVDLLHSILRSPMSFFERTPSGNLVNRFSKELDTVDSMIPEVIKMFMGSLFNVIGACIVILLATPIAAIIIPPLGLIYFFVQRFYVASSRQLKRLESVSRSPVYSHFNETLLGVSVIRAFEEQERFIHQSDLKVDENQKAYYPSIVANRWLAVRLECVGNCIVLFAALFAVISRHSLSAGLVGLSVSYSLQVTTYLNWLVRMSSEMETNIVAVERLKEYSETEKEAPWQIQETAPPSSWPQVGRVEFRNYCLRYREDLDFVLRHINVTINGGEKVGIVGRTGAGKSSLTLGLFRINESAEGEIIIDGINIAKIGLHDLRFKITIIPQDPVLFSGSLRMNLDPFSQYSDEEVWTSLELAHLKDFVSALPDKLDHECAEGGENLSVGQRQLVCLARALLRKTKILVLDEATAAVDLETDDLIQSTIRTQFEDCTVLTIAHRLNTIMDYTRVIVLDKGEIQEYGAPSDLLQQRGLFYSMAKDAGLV

| Compound | Flow-MRP1, Fold Increase (MRP1 inhibition, calcein efflux: treated/control ratio) [fold] |
| --- | --- |
| CO/C(=C\c1ccc(O)cc1)C(=O)N/C=C/c1ccc(OC)c(Br)c1 [Botryllamide D, botryllamide D] | 2.39 |
| CO/C(=C\c1ccc(O)cc1)C(=O)N/C=C/c1ccc(OC)cc1 [Botryllamide E, botryllamide E] | 1.96 |
| botryllamide J | 2.54 |
| botryllamide B | 3.26 |
| CO/C(=C\c1ccc(O)cc1)C(=O)N/C=C/c1cc(Br)c(O)c(Br)c1 [Botryllamide G, botryllamide G] | 2.1 |
| CO/C(=C\c1ccc(O)cc1)C(=O)N/C=C/c1cc(Br)c(OC)c(Br)c1 [Botryllamide A, botryllamide A] | 4.5 |
| CO/C(=C\c1ccc(O)cc1)C(=O)N/C=C/c1ccc(OC)cc1 [Botryllamide I, botryllamide I] | 3.14 |
| CO/C(=C\c1ccc(O)cc1)C(=O)N/C=C/c1ccc(O)cc1 [Botryllamide F, botryllamide F] | 3.33 |
